Source: patent US12655116B2, “Substituted isophthalic acid diamides” (Bayer Aktiengesellschaft, priority 2020, dated 2026)

Assays:
[1] = tested on: ECHCG; assay: Post-emergence herbicidal action against ECHCG; assay type: in vivo, Echinochloa crus-galli; conditions: Echinochloa crus-galli, 504 h; for pest or weed control at 20 g/ha: dosage 20 g/ha
How it was run: (§1)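 Greenhouse pot plants in sandy loam were sprayed at the one-leaf stage, 2 to 3 weeks after sowing, with WP or EC formulations as aqueous suspension or emulsion (600 to 800 l/ha water, 0.2% wetting agent). About 3 weeks later, damage was scored visually against untreated controls as % action (100% = dead, 0% = like control).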

[2] = tested on: AVEFA; assay: Pre-emergence herbicidal action against AVEFA; assay type: in vivo, Avena fatua; conditions: Avena fatua, 504 h; 80 g/ha, pre-emergence
How it was run: (§2)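 Visual rating at 3 weeks vs untreated pots; 0–100% scale, 100% = plants died. Treatment: aqueous WP/EC spray onto covering soil, 600–800 l/ha, 0.2% wetter, seeds in sandy loam.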

[3] = tested on: PHBPU; assay: Post-emergence herbicidal action against PHBPU; assay type: in vivo, Pharbitis purpurea; conditions: Ipomoea purpurea, 504 h; for pest or weed control at 20 g/ha: dosage 20 g/ha
How it was run: as §1

[4] = tested on: VIOTR; assay: Pre-emergence herbicidal action against VIOTR; assay type: in vivo, Viola tricolor; conditions: Viola tricolor, 504 h; for pest or weed control at 20 g/ha: dosage 20 g/ha; for pest or weed control at 80 g/ha: dosage 80 g/ha
How it was run: as §2

[5] = tested on: LOLRI; assay: Pre-emergence herbicidal action against LOLRI; assay type: in vivo, Lolium rigidum; conditions: Lolium rigidum, 504 h, 80 g/ha
How it was run: as §2

[6] = tested on: ECHCG; assay: Pre-emergence herbicidal action against ECHCG; assay type: in vivo, Echinochloa crus-galli; conditions: Echinochloa crus-galli, 504 h
How it was run: as §2

[7] = tested on: DIGSA; assay: Pre-emergence herbicidal action against DIGSA; assay type: in vivo, Digitaria sanguinalis; conditions: Digitaria sanguinalis, 504 h; for pest or weed control at 80 g/ha: dosage 80 g/ha
How it was run: as §2

[8] = tested on: PHBPU; assay: Pre-emergence herbicidal action against PHBPU; assay type: in vivo, Pharbitis purpurea; conditions: Ipomoea purpurea, 504 h, dosage 80 g/ha
How it was run: as §2

[9] = tested on: VIOTR; assay: Post-emergence herbicidal action against VIOTR; assay type: in vivo, Viola tricolor; conditions: Viola tricolor, 504 h, 20 g/ha
How it was run: as §1

[10] = tested on: POLCO; assay: Pre-emergence herbicidal action against POLCO; assay type: in vivo, Polygonum convolvulus; conditions: Fallopia convolvulus, 504 h; for pest or weed control at 80 g/ha: dosage 80 g/ha
How it was run: as §2

[11] = tested on: AMARE; assay: Pre-emergence herbicidal action against AMARE; assay type: in vivo, Amaranthus retroflexus; conditions: Amaranthus retroflexus, 504 h, scored visually after 3 weeks vs untreated controls, 100% = plants have died, 0% = like control plants
How it was run: as §2

[12] = tested on: DIGSA; assay: Post-emergence herbicidal action against DIGSA; assay type: in vivo, Digitaria sanguinalis; conditions: Digitaria sanguinalis, 504 h
How it was run: as §1

[13] = tested on: VERPE; assay: Pre-emergence herbicidal action against VERPE; assay type: in vivo, Veronica persica; conditions: Veronica persica, 504 h; for pest or weed control at 80 g/ha: dosage 80 g/ha
How it was run: as §2

[14] = tested on: AMARE; assay: Post-emergence herbicidal action against AMARE; assay type: in vivo, Amaranthus retroflexus; conditions: Amaranthus retroflexus, 504 h, 20 g/ha, visual assessment about 3 weeks after treatment, 100% = plants have died, 0% = like control plants
How it was run: as §1

[15] = tested on: ABUTH; assay: Post-emergence herbicidal action against ABUTH; assay type: in vivo, Abutilon theophrasti; conditions: Abutilon theophrasti, 504 h, visual assessment about 3 weeks after treatment vs untreated controls; for pest or weed control at 20 g/ha: dosage 20 g/ha
How it was run: as §1

[16] = tested on: SETVI; assay: Pre-emergence herbicidal action against SETVI; assay type: in vivo, Setaria viridis; conditions: Setaria viridis, 504 h; for pest or weed control at 80 g/ha: dosage 80 g/ha
How it was run: as §2

[17] = tested on: MATIN; assay: Post-emergence herbicidal action against MATIN; assay type: in vivo, Matricaria inodora; conditions: Tripleurospermum inodorum, 504 h; for pest or weed control at 5 g/ha: dosage 5 g/ha; for pest or weed control at 20 g/ha: dosage 20 g/ha
How it was run: as §1

[18] = tested on: ABUTH; assay: Pre-emergence herbicidal action against ABUTH; assay type: in vivo, Abutilon theophrasti; conditions: Abutilon theophrasti, 504 h; for pest or weed control at 80 g/ha: scored visually after 3 weeks vs untreated controls (100% = plants have died, 0% = like control plants); for pest or weed control at 20 g/ha: dosage 20 g/ha, scored visually after 3 weeks vs untreated controls, 100% = plants have died, 0% = like control plants, read-out: Pre-emergence action against ABUTH (herbicidal activity in percent)
How it was run: as §2

[19] = tested on: MATIN; assay: Pre-emergence herbicidal action against MATIN; assay type: in vivo, Matricaria inodora; conditions: Tripleurospermum inodorum, 504 h; for pest or weed control at 20 g/ha: dosage 20 g/ha; for pest or weed control at 80 g/ha: dosage 80 g/ha
How it was run: as §2

[20] = tested on: VERPE; assay: Post-emergence herbicidal action against VERPE; assay type: in vivo, Veronica persica; conditions: Veronica persica, 504 h
How it was run: as §1

[21] = tested on: ALOMY; assay: Pre-emergence herbicidal action against ALOMY; assay type: in vivo, Alopecurus myosuroides; conditions: Alopecurus myosuroides, 504 h, pre-emergence; for pest or weed control at 80 g/ha: scored visually after 3 weeks vs untreated controls (100% = plants have died, 0% = like control plants)
How it was run: as §2

[22] = tested on: ALOMY; assay: Post-emergence herbicidal action against ALOMY; assay type: in vivo, Alopecurus myosuroides; conditions: Alopecurus myosuroides, 504 h, visual assessment about 3 weeks after treatment vs untreated controls; for pest or weed control at 20 g/ha: dosage 20 g/ha
How it was run: as §1

[23] = tested on: SETVI; assay: Post-emergence herbicidal action against SETVI; assay type: in vivo, Setaria viridis; conditions: Setaria viridis, 504 h; for pest or weed control at 5 g/ha: dosage 5 g/ha; for pest or weed control at 20 g/ha: dosage 20 g/ha
How it was run: as §1

Structure (SMILES) | pest or weed control at 20 g/ha [1] [%] | pest or weed control at 80 g/ha [2] [%] | pest or weed control at 20 g/ha [3] [%] | pest or weed control at 20 g/ha [4] [%] | pest or weed control at 80 g/ha [4] [%] | pest or weed control at 80 g/ha [5] [%] | pest or weed control at 80 g/ha [6] [%] | pest or weed control at 80 g/ha [7] [%] | pest or weed control at 80 g/ha [8] [%] | pest or weed control at 20 g/ha [9] [%] | pest or weed control at 80 g/ha [10] [%] | pest or weed control at 20 g/ha [11] [%] | pest or weed control at 80 g/ha [11] [%] | pest or weed control at 20 g/ha [12] [%] | pest or weed control at 80 g/ha [13] [%] | pest or weed control at 20 g/ha [14] [%] | pest or weed control at 20 g/ha [15] [%] | pest or weed control at 80 g/ha [16] [%] | pest or weed control at 5 g/ha [17] [%] | pest or weed control at 20 g/ha [17] [%] | other results
Cc1c(C(=O)Nc2nnnn2C)ccc(C(F)(F)F)c1C(=O)NC(C)C [Example 1-33] | 90 | 100 | 80 | 100 | 100 | 80 | 100 | 100 | 100 | 80 | 90 | 100 | 100 | 90 | 100 | 100 | 90 | 100 | 80 | 80 | pest or weed control at 5 g/ha ([1]; dosage 5 g/ha): 80%; pest or weed control at 20 g/ha ([7]; dosage 20 g/ha): 100%; pest or weed control at 80 g/ha [18]: 100%; pest or weed control at 20 g/ha [18]: 90%; pest or weed control at 20 g/ha [19]: 100%; pest or weed control at 80 g/ha [19]: 100%; pest or weed control at 20 g/ha [20]: 80%; pest or weed control at 80 g/ha [21]: 100%; pest or weed control at 20 g/ha [22]: 90%; pest or weed control at 5 g/ha [23]: 80%; pest or weed control at 20 g/ha [23]: 90%
CCNC(=O)c1c(C(F)(F)C(F)(F)F)ccc(C(=O)Nc2nnnn2C)c1Cl [Example 1-166] | 90 | 100 | 90 | 100 | 100 | 80 | 100 | 90 | 80 | 80 | 100 | 100 | 100 | 90 | 100 | 90 | 90 | 100 | 80 | 80 | pest or weed control at 5 g/ha ([3]; dosage 5 g/ha): 80%; pest or weed control at 20 g/ha ([6]; 20 g/ha): 90%; pest or weed control at 20 g/ha ([10]; dosage 20 g/ha): 100%; pest or weed control at 5 g/ha ([12]; 5 g/ha): 90%; pest or weed control at 20 g/ha ([13]; dosage 20 g/ha): 80%; pest or weed control at 5 g/ha ([15]; dosage 5 g/ha): 90%; pest or weed control at 20 g/ha ([16]; dosage 20 g/ha): 80%; pest or weed control at 80 g/ha [18]: 100%; pest or weed control at 20 g/ha [18]: 90%; pest or weed control at 20 g/ha [19]: 100%; pest or weed control at 80 g/ha [19]: 100%; pest or weed control at 5 g/ha ([20]; 5 g/ha): 80%; pest or weed control at 20 g/ha [20]: 90%; pest or weed control at 80 g/ha [21]: 100%; pest or weed control at 20 g/ha ([21]; 20 g/ha, scored visually after 3 weeks, 100% = plants have died, 0% = like control plants): 90%; pest or weed control at 5 g/ha ([22]; dosage 5 g/ha): 80%; pest or weed control at 20 g/ha [22]: 90%; pest or weed control at 5 g/ha [23]: 90%; pest or weed control at 20 g/ha [23]: 90%
